# Patent US20080161306A1, “Pyrrole Derivatives as Dna Gyrase and Topoisomerase Inhibitors” (priority 2005, published 2008)
# Where two headings read alike, the source gives them in different places.
# What was measured:
# Type in all cases: cell-based
# Streptococcus pneumoniae = test: Bacterial susceptibility testing in liquid media (MIC), Streptococcus pneumoniae; conditions: lowest concentration reducing growth by 80% or more, 37 degrees C., 24 hrs; for MIC: Streptococcus pneumoniae
# Procedure: (§1) Compounds were tested for antimicrobial activity by susceptibility testing in liquid media. Compounds were dissolved in dimethylsulfoxide and tested in 10 doubling dilutions in the susceptibility assays. The organisms used in the assay were grown overnight on suitable agar media and then suspended in a liquid medium appropriate for the growth of the organism. The suspension was a 0.5 McFarland and a further 1 in 10 dilution was made into the same liquid medium to prepare the final organism suspension in 100 μL. Plates were incubated under appropriate conditions at 37 degrees C. for 24 hrs prior to reading. The Minimum Inhibitory Concentration was determined as the lowest drug concentration able to reduce growth by 80% or more.
# HIN446 = test: Bacterial susceptibility testing in liquid media (MIC), HIN446; conditions: strain HIN446; lowest concentration reducing growth by 80% or more; 37 degrees C., 24 hrs
# Procedure: as §1
# SAU516 = test: Bacterial susceptibility testing in liquid media (MIC), SAU516; conditions: strain SAU516; lowest concentration reducing growth by 80% or more; 37 degrees C., 24 hrs
# Procedure: as §1
# [1] = strain SPN548, read-out: MIC SPN548
Structure (SMILES),MIC SPN548 (Streptococcus pneumoniae; strain SPN548) [µg/mL],MIC HIN446 (HIN446) [µg/mL],MIC SAU516 (SAU516) [µg/mL],MIC (Streptococcus pneumoniae; read-out: MIC against Streptococcus pneumoniae) [µg/mL],MIC (Streptococcus pneumoniae; [1]) [µg/mL],MIC (HIN446) [µg/mL],MIC (SAU516) [µg/mL]
"CO[C@@H]1C=C(c2cccc(C(=O)O)c2)CC[C@@H]1NC(=O)c1[nH]c(C)c(Cl)c1Cl (relative stereo) [Example 11, 3-((3,4-Cis)-4-{[(3,4-Dichloro-5-methyl-1H-pyrrol-2-yl)carbonyl]amino}-3-methoxycyclohex-1-en-1-yl)benzoic acid]",0.13,2,0.5,–,–,–,–
"Cc1[nH]c(C(=O)NC2CC=C(c3cccc(C(=O)O)c3)CC2)c(Cl)c1Cl (stereo not shown) [Example 16, 5-(4-{[(3,4-Dichloro-5-methyl-1H-pyrrol-2-yl)carbonyl]amino}cyclohex-1-en-1-yl)benzoic acid]",–,–,–,1,1,4,2
"Cc1[nH]c(C(=O)N[C@H]2CC[C@H](c3cccc(C(=O)O)c3)CC2)c(Cl)c1Cl [Example 5, trans-3-(4-{[(3,4-Dichloro-5-methyl-1H-pyrrol-2-yl)carbonyl]amino}cyclohexyl)benzoic acid]",–,–,–,–,4,16,4
